# According to paper PMC11676667, “Pharmacokinetics of Oral Cannabinoid Δ8-Tetrahydrocannabivarin and Its Main Metabolites in Healthy Participants” (Pharmaceuticals, 2024):
# Like-named read-outs stand apart in the source and are kept apart here.
# Assay: Plasma pharmacokinetics after single oral dose of Δ8-THCV in MCT oil (LC-MS/MS, non-compartmental analysis)
# Format: in vivo, human
# Set-up: Clast (last quantifiable concentration): unit not given here
# Settings: for plasma concentration: Predose; for concentration at 0.5 h / concentration at 1 h / concentration at 2 h / concentration at 4 h / concentration at 6 h / concentration at 8 h / AUC(0-t) / Cmax / MRT / Tmax: human; for concentration at 0.5 h / concentration at 1 h / concentration at 2 h / concentration at 4 h / concentration at 6 h / concentration at 8 h: oral; for AUC(0-t) / Cmax / MRT / Tmax: po; for MRT: read-out: MRT (mean residence time)
# In short: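 Healthy participants received single oral Δ8-THCV in MCT oil (50 mg/mL; 12.5-200 mg, or placebo) after a high-fat, high-calorie breakfast, with ≥1-week washout. Plasma (K2EDTA) sampled predose and 0.5-8 h post-dose, assayed by validated LC-MS/MS including metabolites; PK by non-compartmental analysis, sub-LLOQ values set to 0.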
# [1] = 12.5 mg single oral Δ8-THCV in MCT oil, plasma, Mean (±SD)
# [2] = 12.5 mg single oral Δ8-THCV in MCT oil, plasma, Median (Range)
# [3] = 25 mg single oral Δ8-THCV in MCT oil, plasma, Mean (±SD)
# [4] = 25 mg single oral Δ8-THCV in MCT oil, plasma, Median (Range)
# [5] = 50 mg single oral Δ8-THCV in MCT oil, plasma, Mean (±SD)
# [6] = 50 mg single oral Δ8-THCV in MCT oil, plasma, Median (Range)
# [7] = 100 mg single oral Δ8-THCV in MCT oil, plasma, Mean (±SD)
# [8] = 100 mg single oral Δ8-THCV in MCT oil, plasma, Median (Range)
# [9] = 200 mg single oral Δ8-THCV in MCT oil, plasma, Mean (±SD)
# [10] = 200 mg single oral Δ8-THCV in MCT oil, plasma, Median (Range)
# [11] = plasma, 12.5 mg, 12.5 mg Δ8-THCV dose, Mean (SD, %CV)
# [12] = plasma, 12.5 mg, 12.5 mg Δ8-THCV dose, Median (IQ Range)
# [13] = plasma, 25 mg, 25 mg Δ8-THCV dose, Mean (SD, %CV)
# [14] = plasma, 25 mg, 25 mg Δ8-THCV dose, Median (IQ Range)
# [15] = plasma, 50 mg, 50 mg Δ8-THCV dose, Mean (SD, %CV)
# [16] = plasma, 50 mg, 50 mg Δ8-THCV dose, Median (IQ Range)
# [17] = plasma, 100 mg, 100 mg Δ8-THCV dose, Mean (SD, %CV)
# [18] = plasma, 100 mg, 100 mg Δ8-THCV dose, Median (IQ Range)
# [19] = plasma, 200 mg, 200 mg Δ8-THCV dose, Mean (SD, %CV)
# [20] = plasma, 200 mg, 200 mg Δ8-THCV dose, Median (IQ Range)
# [21] = plasma, 12.5 mg, 12.5 mg single oral Δ8-THCV in MCT oil, Mean (±SD)
# [22] = plasma, 12.5 mg, 12.5 mg single oral Δ8-THCV in MCT oil, Median (Range)
# [23] = plasma, 25 mg, 25 mg single oral Δ8-THCV in MCT oil, Mean (±SD)
# [24] = plasma, 25 mg, 25 mg single oral Δ8-THCV in MCT oil, Median (Range)
# [25] = plasma, 50 mg, 50 mg single oral Δ8-THCV in MCT oil, Mean (±SD)
# [26] = plasma, 50 mg, 50 mg single oral Δ8-THCV in MCT oil, Median (Range)
# [27] = plasma, 100 mg, 100 mg single oral Δ8-THCV in MCT oil, Mean (±SD)
# [28] = plasma, 100 mg, 100 mg single oral Δ8-THCV in MCT oil, Median (Range)
# [29] = plasma, 200 mg, 200 mg single oral Δ8-THCV in MCT oil, Mean (±SD)
# [30] = plasma, 200 mg, 200 mg single oral Δ8-THCV in MCT oil, Median (Range)
structure (smiles),measurement,setting,value
"CCCc1cc(O)c2c(c1)OC(C)(C)[C@@H]1CC=C(C(=O)O)C[C@@H]21 [Δ8-THCV-COOH, 11-nor-9-carboxy-Δ8-THCV]",Clast (last quantifiable concentration),[1],46.8 (±23)
same,tlast (time to last quantifiable concentration),[1],8 (±0)
same,Clast (last quantifiable concentration),[2],38.2 (20.1–102)
same,tlast (time to last quantifiable concentration),[2],8 (8–8)
same,Clast (last quantifiable concentration),[3],71.6 (±33.8)
same,tlast (time to last quantifiable concentration),[3],8 (±0)
same,Clast (last quantifiable concentration),[4],78.3 (25.5–146)
same,tlast (time to last quantifiable concentration),[4],8 (8–8)
same,Clast (last quantifiable concentration),[5],166 (±60.3)
same,tlast (time to last quantifiable concentration),[5],8 (±0)
same,Clast (last quantifiable concentration),[6],148 (78.9–264)
same,tlast (time to last quantifiable concentration),[6],8 (8–8)
same,Clast (last quantifiable concentration),[7],319 (±118)
same,tlast (time to last quantifiable concentration),[7],8 (±0)
same,Clast (last quantifiable concentration),[8],304 (153–590)
same,tlast (time to last quantifiable concentration),[8],8 (8–8)
same,Clast (last quantifiable concentration),[9],917 (±582)
same,tlast (time to last quantifiable concentration),[9],8 (±0)
same,Clast (last quantifiable concentration),[10],855 (364–2402)
same,tlast (time to last quantifiable concentration),[10],8 (8–8)
same,plasma concentration,"12.5 mg Δ8-THCV dose, Mean (SD, %CV)","0.2 (±0.4, 267) ng/mL"
same,plasma concentration,"12.5 mg Δ8-THCV dose, Median (IQ Range)",0 (0–0) ng/mL
same,plasma concentration,"25 mg Δ8-THCV dose, Mean (SD, %CV)","0.3 (±1, 374) ng/mL"
same,plasma concentration,"25 mg Δ8-THCV dose, Median (IQ Range)",0 (0–0) ng/mL
same,plasma concentration,"50 mg Δ8-THCV dose, Mean (SD, %CV)","0.8 (±1.6, 187) ng/mL"
same,plasma concentration,"50 mg Δ8-THCV dose, Median (IQ Range)",0 (0–0.9) ng/mL
same,plasma concentration,"100 mg Δ8-THCV dose, Mean (SD, %CV)","0.5 (±0.8, 166) ng/mL"
same,plasma concentration,"100 mg Δ8-THCV dose, Median (IQ Range)",0 (0–1) ng/mL
same,plasma concentration,"200 mg Δ8-THCV dose, Mean (SD, %CV)","0.1 (±0.3, 387) ng/mL"
same,plasma concentration,"200 mg Δ8-THCV dose, Median (IQ Range)",0 (0–0) ng/mL
same,median AUClast ratio Δ8-THCV-COOH/Δ8-THCV/11-OH-Δ8-THCV,"after the 200 mg dose, Δ8-THCV = 1",36
same,concentration at 0.5 h,[11],0.4 ng/mL
same,concentration at 0.5 h,[12],0 ng/mL
same,concentration at 1 h,[11],15 ng/mL
same,concentration at 1 h,[12],3 ng/mL
same,concentration at 2 h,[11],30.1 ng/mL
same,concentration at 2 h,[12],15.5 ng/mL
same,concentration at 4 h,[11],84.6 ng/mL
same,concentration at 4 h,[12],73.1 ng/mL
same,concentration at 6 h,[11],62.2 ng/mL
same,concentration at 6 h,[12],53.3 ng/mL
same,concentration at 8 h,[11],46.8 ng/mL
same,concentration at 8 h,[12],38.2 ng/mL
same,concentration at 0.5 h,[13],2.7 ng/mL
same,concentration at 0.5 h,[14],0 ng/mL
same,concentration at 1 h,[13],28.5 ng/mL
same,concentration at 1 h,[14],7.1 ng/mL
same,concentration at 2 h,[13],54.6 ng/mL
same,concentration at 2 h,[14],55.6 ng/mL
same,concentration at 4 h,[13],136 ng/mL
same,concentration at 4 h,[14],108 ng/mL
same,concentration at 6 h,[13],96.3 ng/mL
same,concentration at 6 h,[14],82.6 ng/mL
same,concentration at 8 h,[13],71.6 ng/mL
same,concentration at 8 h,[14],78.3 ng/mL
same,concentration at 0.5 h,[15],4.7 ng/mL
same,concentration at 0.5 h,[16],1.3 ng/mL
same,concentration at 1 h,[15],27.3 ng/mL
same,concentration at 1 h,[16],4.8 ng/mL
same,concentration at 2 h,[15],84.1 ng/mL
same,concentration at 2 h,[16],26.5 ng/mL
same,concentration at 4 h,[15],214 ng/mL
same,concentration at 4 h,[16],177 ng/mL
same,concentration at 6 h,[15],233 ng/mL
same,concentration at 6 h,[16],200 ng/mL
same,concentration at 8 h,[15],166 ng/mL
same,concentration at 8 h,[16],148 ng/mL
same,concentration at 0.5 h,[17],13 ng/mL
same,concentration at 0.5 h,[18],1.7 ng/mL
same,concentration at 1 h,[17],202 ng/mL
same,concentration at 1 h,[18],79.5 ng/mL
same,concentration at 2 h,[17],306 ng/mL
same,concentration at 2 h,[18],275 ng/mL
same,concentration at 4 h,[17],556 ng/mL
same,concentration at 4 h,[18],547 ng/mL
same,concentration at 6 h,[17],512 ng/mL
same,concentration at 6 h,[18],497 ng/mL
same,concentration at 8 h,[17],319 ng/mL
same,concentration at 8 h,[18],304 ng/mL
same,concentration at 0.5 h,[19],5.6 ng/mL
same,concentration at 0.5 h,[20],0 ng/mL
same,concentration at 1 h,[19],158 ng/mL
same,concentration at 1 h,[20],108 ng/mL
same,concentration at 2 h,[19],653 ng/mL
same,concentration at 2 h,[20],319 ng/mL
same,concentration at 4 h,[19],1300 ng/mL
same,concentration at 4 h,[20],1110 ng/mL
same,concentration at 6 h,[19],1170 ng/mL
same,concentration at 6 h,[20],1020 ng/mL
same,concentration at 8 h,[19],917 ng/mL
same,concentration at 8 h,[20],855 ng/mL
same,AUC(0-t),[21],398 ng·h/mL
same,Cmax,[21],99 ng/mL
same,AUC(0-t),[22],331 ng·h/mL
same,Cmax,[22],101 ng/mL
same,MRT,"plasma, 12.5 mg, 12.5 mg single oral Δ8-THCV in MCT oil, plasma, Mean (±SD)",4.9 h
same,Tmax,"plasma, 12.5 mg, 12.5 mg single oral Δ8-THCV in MCT oil, plasma, Mean (±SD), read-out: tmax",4.9 h
same,MRT,"plasma, 12.5 mg, 12.5 mg single oral Δ8-THCV in MCT oil, plasma, Median (Range)",4.9 h
same,Tmax,"plasma, 12.5 mg, 12.5 mg single oral Δ8-THCV in MCT oil, plasma, Median (Range), read-out: tmax",4 h
same,AUC(0-t),[23],642 ng·h/mL
same,Cmax,[23],151 ng/mL
same,AUC(0-t),[24],574 ng·h/mL
same,Cmax,[24],116 ng/mL
same,MRT,"plasma, 25 mg, 25 mg single oral Δ8-THCV in MCT oil, plasma, Mean (±SD)",4.8 h
same,Tmax,"plasma, 25 mg, 25 mg single oral Δ8-THCV in MCT oil, plasma, Mean (±SD), read-out: tmax",4.6 h
same,MRT,"plasma, 25 mg, 25 mg single oral Δ8-THCV in MCT oil, plasma, Median (Range)",4.6 h
same,Tmax,"plasma, 25 mg, 25 mg single oral Δ8-THCV in MCT oil, plasma, Median (Range), read-out: tmax",4 h
same,AUC(0-t),[25],1210 ng·h/mL
same,Cmax,[25],324 ng/mL
same,AUC(0-t),[26],1090 ng·h/mL
same,Cmax,[26],275 ng/mL
same,MRT,"plasma, 50 mg, 50 mg single oral Δ8-THCV in MCT oil, plasma, Mean (±SD)",5.3 h
same,Tmax,"plasma, 50 mg, 50 mg single oral Δ8-THCV in MCT oil, plasma, Mean (±SD), read-out: tmax",5.3 h
same,MRT,"plasma, 50 mg, 50 mg single oral Δ8-THCV in MCT oil, plasma, Median (Range)",5.3 h
same,Tmax,"plasma, 50 mg, 50 mg single oral Δ8-THCV in MCT oil, plasma, Median (Range), read-out: tmax",6 h
same,AUC(0-t),[27],3070 ng·h/mL
same,Cmax,[27],756 ng/mL
same,AUC(0-t),[28],3130 ng·h/mL
same,Cmax,[28],699 ng/mL
same,MRT,"plasma, 100 mg, 100 mg single oral Δ8-THCV in MCT oil, plasma, Mean (±SD)",4.8 h
same,Tmax,"plasma, 100 mg, 100 mg single oral Δ8-THCV in MCT oil, plasma, Mean (±SD), read-out: tmax",4.7 h
same,MRT,"plasma, 100 mg, 100 mg single oral Δ8-THCV in MCT oil, plasma, Median (Range)",4.6 h
same,Tmax,"plasma, 100 mg, 100 mg single oral Δ8-THCV in MCT oil, plasma, Median (Range), read-out: tmax",4 h
same,AUC(0-t),[29],6960 ng·h/mL
same,Cmax,[29],1740 ng/mL
same,AUC(0-t),[30],6000 ng·h/mL
same,Cmax,[30],1900 ng/mL
same,MRT,"plasma, 200 mg, 200 mg single oral Δ8-THCV in MCT oil, plasma, Mean (±SD)",5.1 h
same,Tmax,"plasma, 200 mg, 200 mg single oral Δ8-THCV in MCT oil, plasma, Mean (±SD), read-out: tmax",5.3 h
same,MRT,"plasma, 200 mg, 200 mg single oral Δ8-THCV in MCT oil, plasma, Median (Range)",5.1 h
same,Tmax,"plasma, 200 mg, 200 mg single oral Δ8-THCV in MCT oil, plasma, Median (Range), read-out: tmax",6 h
same,Tmax,"plasma, across oral Δ8-THCV doses 12.5-200 mg, plasma, read-out: median time-to-maximum concentration (tmax), range across doses",4.6 to 5.3 h
same,number of positive plasma samples,of 504 plasma samples from 15 participants after oral Δ8-THCV,381
same,concentration in representative plasma sample,"one subject after oral Δ8-THCV in MCT oil, Figure A1",1026 ng/mL
same,median systemic exposure (plasma AUClast) relative to parent compound,oral Δ8-THCV,36 fold
same,"plasma concentration relative to Δ8-THCV, on average at each timepoint",oral Δ8-THCV,10 fold
same,increase of median AUClast every two-fold increase in the dose,"oral Δ8-THCV 12.5-200 mg, plasma",1.7- to 2.9 fold
